Reference: patent US12594292B2, “Antiviral prodrugs, intermediate-and long-acting formulations and methods” (priority 2022, dated 2026)

Columns and labels:
PSC-human lung cells = assay: Cell viability assay CellTiter-Glo, PSC-human lung cells (Example 7)
Caco-2 cells = assay: Cell viability assay CellTiter-Glo, Caco-2 cells (Example 7); conditions: Caco-2 cells, CellTiter-Glo
SARS-CoV-2 [1] = assay: SARS-CoV-2 infection assay in Huh7.5 cells, nucleocapsid immunofluorescence (Example 6); format: cell-based; conditions: MOI 0.1, 48 hours
Calu-3 cells [2] = assay: Cytotoxicity in Calu-3 cells, nuclei count or CellTiter-Glo (Example 6); conditions: for select compounds up to 100 μM by CellTiter-Glo
Description: After which an equal volume of CellTiter-Glo reagent (Cat. #G7570, Promega, Madison, WI) was added, mixed and luminescence recorded on a Veritas Microplate Luminometer (Turner BioSystems) according to manufacturer recommendations.

TMPRSS2-Vero cells = assay: Cytotoxicity in TMPRSS2-Vero cells, nuclei count (Example 6); format: cell-based
VERO E6 cells = assay: Cell viability assay CellTiter-Glo, Vero E6 cells (Example 7)
[3] = system: USA WA-01 strain of SARS CoV-2; assay: Anti-coronavirus activity in Vero E6 cells, qPCR of spike RNA (Example 2); format: cell-based
Description: Ten thousand Vero E6 cells were seeded in 100 microliters of culture medium in 96 well plates. The following day serial two-fold dilutions of antiviral compounds or the DMSO-containing vehicle were added to each well. The USA WA-01 strain of SARS CoV-2 was added to each well at a multiplicity of infection of 0.1 thirty minutes later. Cells were incubated for 48 hours, washed twice in PBS and lysed with TRIzol. RNA was extracted using Directzol micro RNA columns. RNA was made into cDNA and assayed for the SARS CoV-2 spike protein and for a housekeeping gene (RPLPO) RNA by qPCR. Data represents the average of duplicate wells. Cellular cytotoxicity was also measured in VERO E6 cells. […] Cytotoxicity (CC50) was assessed using a commercially available MTT assay.

Huh7.5 cells [4] = assay: Cell viability assay CellTiter-Glo, Huh7.5 cells (Example 7)
Calu-3 cells [5] = assay: Cell viability assay CellTiter-Glo, Calu-3 cells (Example 7); conditions: Calu-3 cells, CellTiter-Glo
SRV A2 strain of RSV = assay: RSV infection in Hep-2 cells, CPE reduction; format: cell-based, respiratory syncytial virus; conditions: RSV A2 in Hep-2 cells, 72 to 96 hours
Description: Methods: The SRV A2 strain of RSV was obtained from the ATCC. Ten thousand Hep-2 cells were seeded into each well of a 96-well plate in EMEM with 10% fetal bovine serum and 1% penicillin and streptomycin. Each well was inoculated with 100 TCID50 of virus. Two hours later wells were washed once with medium and serial four-fold dilutions of candidate antiviral drugs were added.

HCoV-229E = format: cell-based, human Coronavirus 229E
[6] = system: SARS-CoV-2 isolate USA-WA1/2020; assay: SARS-CoV-2 infection in Caco-2 cells, qRT-PCR (Example 7); format: cell-based
Huh7.5 cells [7] = assay: Cytotoxicity in Huh7.5 cells, nuclei count (Example 6); format: cell-based, human
SARS-CoV-2 [8] = assay: SARS-CoV-2 infection assay in TMPRSS2-Vero cells, nucleocapsid immunofluorescence (Example 6); format: cell-based; conditions: MOI 0.01, 32 hours
SARS-CoV-2 [9] = assay: SARS-CoV-2 infection assay in Calu-3 cells, nucleocapsid immunofluorescence (Example 6); conditions: MOI 0.01, 44 hour
[10] = system: SARS-CoV-2 isolate USA-WA1/2020; assay: SARS-CoV-2 infection in Vero E6 cells, qRT-PCR (Example 7); format: cell-based
[11] = system: SARS-CoV-2 isolate USA-WA1/2020; assay: SARS-CoV-2 infection in PSC-human lung cells, qRT-PCR (Example 7); format: cell-based
[12] = system: SARS-CoV-2 isolate USA-WA1/2020; assay: SARS-CoV-2 infection in Calu-3 cells, qRT-PCR (Example 7); format: cell-based
Hep-2 cells = assay: Cell viability assay for the RSV table (CC50); format: cell-based
Human Coronavirus 229E = Human Coronavirus 229E infected MRC-5 cells, CPE by MTT (Example 8); format: cell-based; conditions: 229E in MRC-5 cells, 72 hours
[13] = Vero E6 cells, MOI 0.1, 48 hours
[14] = Caco-2 cells, MOI 0.01, 48 hours

CCCCCCCCCCCCCCCCCCOC[C@H](COP(=O)(O)OC[C@H]1O[C@@](C#N)(c2ccc3c(N)ncnn23)[C@H](O)[C@@H]1O)OCc1ccccc1 [Compound 15d, 1-O-octadecyl-2-O-benzyl-sn-glyceryl-phospho-RVn]
CC50 (PSC-human lung cells): 61500 nM | CC50 (Caco-2 cells): 88400 nM | EC50 (SARS-CoV-2 [1]): 138 nM | EC90 (SARS-CoV-2 [1]): 377 nM | CC50 (Calu-3 cells [2]): > 20000 nM | CC50 (TMPRSS2-Vero cells): > 20000 nM | CC50 (VERO E6 cells): 97900 nM | Selectivity Index ([3]; CC50/EC50, Vero E6): >238 | EC50 [3, 13]: 210 nM | EC90 [3, 13]: 560 nM | CC50 (Huh7.5 cells [4]): 62900 nM | CC50 (Calu-3 cells [5]): 98200 nM | EC50 (SRV A2 strain of RSV): 10 nM | EC90 (SRV A2 strain of RSV): 19 nM | EC50 (HCoV-229E): 100 nM | EC90 (HCoV-229E): 280 ± 13 nM | Selectivity ([6]; CC50/EC50, Caco-2 cells): 295 | EC50 [6, 14]: 300 nM | EC90 [6, 14]: 330 nM | CC50 (MRC-5 cells): 43100 ± 18900 nM | CC50 (Huh7.5 cells [7]): > 20000 nM | EC50 (SARS-CoV-2 [8]): 205 nM | EC90 (SARS-CoV-2 [8]): 432 nM | EC50 (SARS-CoV-2 [9]): 164 ± 20 nM | EC90 (SARS-CoV-2 [9]): 536 ± 138 nM | Selectivity ([10]; CC50/EC50, Vero E6 cells): 699 | EC50 ([10]; Vero E6 cells, MOI 0.01, 48 hours): 140 nM | EC90 ([10]; Vero E6 cells, MOI 0.01, 48 hours, listed as ODBG-P-RVn, 15d): 160 nM | Selectivity ([11]; CC50/EC50, PSC-human lung cells): 410 | EC90 ([11]; PSC-human lung cells, MOI 0.01, 48 hours): 260 nM | Selectivity ([12]; CC50/EC50, Calu-3 cells): 327 | EC90 ([12]; Calu-3 cells, MOI 0.01, 48 hours): 330 nM | EC50 ([12]; Calu-3 cells, MOI 0.01, 48 hours, listed as ODBG-P-RVn): 300 nM | CC50 (Hep-2 cells): 14700 nM | EC50 (Human Coronavirus 229E): 150 nM
